From patent publication US20060052456A1, “Kynurenine 3-hydroxylase inhibitors for the treatment of diabetes by increasing the number of islets of langerhans cells” (MERCK PATENT GMBH, priority 2003, published 2006)

Columns and labels:
kynurenine 3-hydroxylase = biological target: T1, kynurenine 3-hydroxylase (Rattus norvegicus, UniProt O88867); assay: Inhibitory activity on kynurenine 3-hydroxylase in rat liver homogenate; type: biochemical; settings: mean of two experiments, read-out: IC50, kynurenine 3-hydroxylase inhibition
T1 construct: from tissue; host or cells: rat liver homogenate (12000 rpm pellet, resuspended)
T1 sequence (O88867 whole entry): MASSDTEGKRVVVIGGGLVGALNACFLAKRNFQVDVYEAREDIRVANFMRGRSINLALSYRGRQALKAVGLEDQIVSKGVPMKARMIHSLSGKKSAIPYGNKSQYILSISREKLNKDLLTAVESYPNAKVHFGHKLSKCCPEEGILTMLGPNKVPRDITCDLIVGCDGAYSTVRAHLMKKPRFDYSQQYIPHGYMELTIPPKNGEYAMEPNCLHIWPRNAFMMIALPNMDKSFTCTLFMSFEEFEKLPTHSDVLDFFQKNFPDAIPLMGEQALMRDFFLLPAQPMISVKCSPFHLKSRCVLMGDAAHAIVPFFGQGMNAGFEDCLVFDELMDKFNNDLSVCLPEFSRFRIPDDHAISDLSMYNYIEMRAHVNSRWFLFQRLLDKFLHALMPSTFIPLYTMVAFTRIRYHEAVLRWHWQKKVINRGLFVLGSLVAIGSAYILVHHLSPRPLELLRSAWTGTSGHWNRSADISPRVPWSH
Procedure: Study of the Inhibitory Activity on Kynurenine 3-Hydroxylase in Rat Liver
Rat livers are homogenised (1:8 weight/volume) in a buffer solution comprising: 0.25 M sucrose; 50 mM pH 7.4 Tris; 1 mM EDTA; and 1 mM DTT.
The homogenates are centrifuged for 10 minutes at 12000 rpm. The pellets are resuspended in the buffer solution described above (1:2 weight/volume).
The kynurenine 3-hydroxylase inhibition is determined by incubating 10 μL of the homogenate with NADPH (2 mM), kynurenine (100 μM) and various concentrations of the test compounds in a final volume of 100 μL at 37° C. for 5 minutes.
The compounds are tested at concentrations of between 1 μM and 300 μM. 3,4-Dimethoxy-N-[4-(3-nitrophenyl)thiazol-2-yl]benzenesulfonamide is a compound from the company Hoffmann-LaRoche (Basle, see J. Med. Chem., 40 (1997), 4738). 30H-Kynurenine was tested according to the protocol described by Carpendo et al. (Neuroscience, 61 (1994), 237-244).
Each of the experiments is repeated once and the IC50 values (in μmol/L) are calculated and given in the form of a mean of these two experiments.
Results concerning representative examples of family Ih are given in Table II below, in which is indicated the measurement of the percentage of remaining kynurenine 3-hydroxylase activity relative to the control (100%).

hepatocytes = assay: Hepatic glucose production in vitro in isolated hepatocytes (Table IV); type: cell-based, Wistar rats
Procedure: The following two methods were used:
1) The hepatocytes are cultured for 16 to 18 hours in DMEM medium in the presence of AMP cyclase/dexamethasone at respective concentrations of 5×10^−5 M and 5×10^−7 M, with preincubation of the products at the test doses. After washing in pH 7.4 PBS buffer, the cells are incubated for three hours at 37° C. in a Krebs/AMPc/DEX buffer at the abovementioned concentrations. 0.1 μM insulin is used as reference substance. Two identical experiments are performed (Table III-1).
After washing in pH 7.4 PBS buffer, the cells are incubated for two hours at 37° C. in a Krebs buffer free of glucose and of insulin, containing lactate/pyruvate (10/1 mM) in the presence or absence of the test compounds. 10 μM MICA (5-methoxyindole-2-carboxylic acid) is used as reference substance. Two identical experiments are performed (Table III-2).
The protein assay is performed on the rest of the incubation medium via the Lowry method (BIO-RAD Dc protein assay, BIO-RAD 5000116).
The results are expressed as nmoles of glucose produced per […] of proteins. The statistical test used is the t test.

[1] = system: perfused isolated pancreases from N0 STZ diabetic rats; assay: Secretion of insulin and glucagon in perfused isolated pancreases from N0 STZ diabetic rats; type: cell-based; settings: perfused diabetic rat pancreas; absence of glucose, then 16.5 mM glucose; glucose-dependent
Excerpt: The results are expressed as the mean ±SEM (standard error of mean) of several experiments. The statistical test used is the Scheffé test.

IC50 (kynurenine 3-hydroxylase) [µM]	SMILES	inhibition at 10 µM (hepatocytes; Rattus norvegicus, Hepatocyte) [%]	inhibition at 100 µM (hepatocytes; Rattus norvegicus, Hepatocyte) [%]	glucagon secretion (in words) [1]	insulin secretion (in words) [1]	inhibition at 1 µM (hepatocytes; Rattus norvegicus, Hepatocyte, 1 μM) [%]	inhibition of hepatic glucose production in vitro (in words) (hepatocytes; isolated rat hepatocytes)
10 ± 2.1	COc1ccc(S(=O)(=O)Nc2nc(-c3cccc([N+](=O)[O-])c3)cs2)cc1OC [Compound k, 3,4-dimethoxy-N-[4-(3-nitrophenyl)thiazol-2-yl]benzenesulfonamide]	0	22	stimulation	stimulation	–	–
1 ± 0.2	O=C(C[C@@H](Cc1ccccc1)C(=O)O)c1ccc(F)cc1 [Compound i, (R)-2-benzyl-4-(4-fluorophenyl)-4-oxobutanoic acid]	28	62	stimulation	stimulation	13	powerful inhibitors of hepatic glucose production in vitro
